# Measured values as given in patent US12655124B2, “Heterocyclic compounds as modulators of stimulator of interferon genes (STING)” (RYVU THERAPEUTICS S.A., priority 2019, dated 2026).
# Experiments:
# [1] = system: CT26 murine colon carcinoma allografts; assay: In vivo anti-tumor efficacy, CT26 allograft; set-up: species or system female Balb/C mice; settings: once every fifth day on three occasions; for response of CT26 tumors to the treatment: intravenously, all dose levels
# Experimental: In Vivo Anti-Tumor Efficacy The efficacy of Example 4, Example 31 and Example 57 was evaluated in established CT26 murine colon carcinoma allografts in female Balb/C mice. Compounds were formulated in 5% ethanol with 10% Captisol in PBS and administered intravenously, once every fifth day on three occasions. The solution was prepared fresh prior to each administration. […] By the end of the study there was one complete response among animals treated at 10 mg/kg of Example 4. […] By the end of the study, on day 43, there was one complete response recorded in group treated at 20 mg/kg of Example 57.
# [2] = target: human STING (Homo sapiens, UniProt Q86WV6); assay: Fluorescence Thermal Shift assay (hSTING FTS binding assay); settings: ΔTm, STING 0.1 mg/mL, SyproOrange, 25 to 99° C.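 Also: STING preincubated with compound for 20 min in HEPES NaCl buffer pH 7.5.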
# Experimental: Fluorescence Thermal Shift Assay Compounds of the present invention were tested for binding to human STING in Fluorescence Thermal Shift assay. […] Final STING concentration was 0.1 mg/mL. Thermal unfolding was performed in Real-Time PCR QuantStudio 6 Flex System (Applied Biosystems), from 25 to 99° C., with continuous ramp mode and ramp rate 0.033° C./s. The data were analyzed using Protein Thermal Shift Software (ThermoFisher).
# Chain of human STING (Q86WV6 whole entry H232R): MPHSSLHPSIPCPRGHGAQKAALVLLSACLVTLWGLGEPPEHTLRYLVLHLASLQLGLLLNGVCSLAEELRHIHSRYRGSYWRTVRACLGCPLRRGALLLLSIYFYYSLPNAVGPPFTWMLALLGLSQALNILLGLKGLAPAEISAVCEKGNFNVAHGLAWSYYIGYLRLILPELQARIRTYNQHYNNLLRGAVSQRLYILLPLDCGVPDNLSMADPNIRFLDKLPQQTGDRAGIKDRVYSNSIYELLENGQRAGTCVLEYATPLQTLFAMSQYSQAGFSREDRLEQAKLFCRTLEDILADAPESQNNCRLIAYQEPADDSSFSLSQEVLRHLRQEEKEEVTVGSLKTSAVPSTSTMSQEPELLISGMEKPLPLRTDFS
Compound,tumor growth effect compared to the control group ([1]; 5 mg/kg intravenously),tumor growth effect compared to the control group ([1]; 10 mg/kg intravenously),tumor growth effect compared to the control group ([1]; 20 mg/kg intravenously),"complete responses by the end of the study ([1]; 20 mg/kg intravenously, day 43)","dose dependence of the tumor response ([1]; 5, 10 and 20 mg/kg intravenously)",response of CT26 tumors to the treatment [1],hSTING FTS binding assay (ΔT ° C.) [2],tumor growth effect compared to the control group ([1]; 7 mg/kg intravenously),complete responses by the end of the study ([1]; 10 mg/kg intravenously),tumor growth effect compared to the control group ([1]; 15 mg/kg intravenously),tumor growth effect compared to the control group ([1]; 30 mg/kg intravenously),"complete responses by the end of the study ([1]; 30 mg/kg intravenously, day 43)"
"Cc1ccc(N2CCC[C@H](N(Cc3ccnc(C)c3)Cc3cn(C4CC4)c4cc(N5CC[C@H](N)C(F)(F)C5)c(F)cc4c3=O)C2)cn1.Cl (single isomer, unassigned) [Example 57]",minimal tumor growth delay,moderately efficacious,full efficacious,one,dose dependent manner,responded prominently,+++ (ΔTm≥20° C.),–,–,–,–,–
"COc1cc(CN(Cc2cn(C3CC3)c3cc(F)c(F)cc3c2=O)[C@H]2CCCN(c3ccc(N)nc3)C2)ccn1.Cl [Example 4, 3-({[(3S)-1-(6-Aminopyridin-3-yl)piperidin-3-yl][(2-methoxypyridin-4-yl)methyl]amino}methyl)-1-cyclopropyl-6,7-difluoro-1,4-dihydroquinolin-4-one Hydrochloride]",–,efficacious and caused tumor growth delay or significant decrease of the tumor size,–,–,–,responded prominently,+++ (ΔTm≥20° C.),efficacious and caused tumor growth delay or significant decrease of the tumor size,one,–,–,–
"Cc1ccc(N2CCC[C@H](N(Cc3ccnc(C)c3)Cc3cn(C4CC4)c4cc(N5CCC[C@H](O)C5)c(F)cc4c3=O)C2)cn1.Cl [Example 31, 1-cyclopropyl-6-fluoro-7-[(3S)-3-hydroxypiperidin-1-yl]-3-({[(3S)-1-(6-methylpyridin-3-yl)piperidin-3-yl][(2-methylpyridin-4-yl)methyl]amino}methyl)-1,4-dihydroquinolin-4-one Hydrochloride]",–,–,–,–,–,responded prominently,+++ (ΔTm≥20° C.),slight tumor growth delay,–,prominently efficacious,prominently efficacious,two
